# Laboratory results reported in patent US5420106A, “Method and composition having enhanced alpha-hydroxy acid skin permeation and retention” (priority 1994, dated 1995).
# Key:
# [1] = Skin retention of lactic acid (epidermis and dermis analysis after the permeation study); format: in vitro ADME
# Procedure: (§1) Franz Diffusion Cell Study at Finite Dose
# (§2) For each formulation, skin sections were mounted on three or four flat flange Franz diffusion cells (FDC 400) with a diffusional cross-section area of 1.2cm^2. About 60 to 100 mg of test formulation were placed on the stratum corneum surface of the skin in the donor compartment and the receptor compartment was filled with about 11 ml of normal saline. The receptor fluid was well stirred throughout the experiment and the temperature was maintained by circulating water at 37° C. through the water jacket of the diffusion cells. Precisely 500 μl of receptor fluid was collected in a scintillation vial at appropriate intervals for a period of 68 hours. […] The receptor fluid was replenished after each withdrawal. All the receptor fluid and replenished fluids were filtered using a 0.22 μm filter and thoroughly degassed before use.
# Cotton swabs were used during the rinsing procedure to recover the remaining surface dose. A circular incision was made in the skin exposed to the formulation. The epidermis at the circular edge was slowly lifted using a pointed flat spatula, and then separated from the dermis using forceps. The epidermis and dermis were transferred to previously weighed teflon tape and dried in a desiccator for 72 hours until a constant weight was obtained. […]
# [2] = cited from earlier work
# [3] = in vivo; cited from earlier work
# [4] = In-vitro skin permeation study of lactic acid, Franz diffusion cell at finite dose (14C-lactic acid); format: in vitro ADME
# Procedure: The skin permeation test was conducted by the following procedure:
# In-vitro Skin Permeation Study
# as §1, §2
# [5] = hydrated skin; cited from earlier work
compound,measurement,setting,value
CC(O)C(=O)O (centres unmarked) [ammonium lactate],skin retention of lactic acid / α-hydroxy acid (general finding),[1],excellent lactic acid skin permeation and skin retention profiles
same,skin retention of lactic acid,[1]; pH 4.6,excellent skin retention
same,potency for other dermatological disorders,"[2]; U.S. Pat. No. 5,091,171, topical ammonium salts",lost most of its potency
same,effectiveness in treating dermatological disorders,[2]; topical,very effective
same,skin irritation,[3],skin irritant to a degree which many patients find unacceptable
CC(C)[C@H](N)C(=O)O [valine],enhancement of skin permeation of lactic acid by valine,[4],does not enhance skin permeation of lactic acid
CC(C)NCC(O)COc1cccc2ccccc12 (centres unmarked) [propranolol],permeation or permeation rate on hydration of skin,[5],decreases the permeation rate by two fold
"CCCCCCCCCCCCCC(=O)OC(C)C [IPM, isopropyl myristate]",skin permeation enhancer effect for lactic acid,"[4]; FIGS. 1-2, IPM vs PGD in lysine lactate lotions",better skin permeation enhancer for lactic acid than PGD
